In assay [1] the test system is ApoE −/− mice. The assay can be described thus: Triglyceride deposit in the aortas of ApoE −/− mice. Conditions: control 185±33. In kind it is in vivo. From the text: (§1) Firstly, mice devoid of the coding gene for Apo lipoprotein E (ApoE −/−) have been used. These mice represent a model of choice of studying early atherosclerosis and development of a plaque rich in foamy macrophages. Male C57BL/6J mice homozygote for deletion of the ApoE gene were subjected to a normal dietary regimen until the age of eight weeks. These mice (n=8 per group) subsequently received ad libitum and for 12 weeks either a dietary regimen not enriched with cholesterol or fat, or an enriched regimen, containing 1.5 g/kg of cholesterol and 200 g/kg of fat of milk origin. The untreated mice underwent daily intraperitoneal injections of a solution containing DMSO at 10%. The treated mice received by intraperitoneal injection the same solution containing 2 or 20 μg (i.e. 0.1 mg/kg/day or 1 mg/kg/day) of the compound CGP 02-01. Following the blood sample for the biochemical analyses, the mice were killed.
The triglycerides which accumulate in the aortic wall were measured in the following manner: the aortas of the animals are rinsed with physiological saline after dissection. The lipid mass of the adventitia is eliminated by dissection and the intima media is dehydrated. The triglyceride level is measured and expressed as the weight of triglycerides per dry weight of tissue.

Assay [2] deals with THP1 cells. The assay can be described thus: Inhibition of binding and accumulation of cyanine 3-marked LDLox as lipid vesicles in differentiated THP1 macrophage cells. In kind it is cell-based. As to the method:
The culture medium may be replaced every two days.
In the present example, the accumulation of lipid vesicles within the cell was measured using THP1 cells following fixation with paraformaldehyde in PBS medium using a solution containing a fluorescent marker of the Oil Red O type in order to visualise the vesicles. The image of the cells rich in vesicles was analysed using a microscope ecqluipped with a CCD camera and software necessary for the analysis.
The medium was replaced every 2-3 days.
The differentiated THP-1 were subsequently incubated with LDLox coupled with cyanine-3 (1.5 μg/ml) in the presence or absence of the molecule CGP02-01 (concentrations of between 10^−5M and 3.1.6 10^−10M) for 24 hours at 37° C., 5% CO2. […] Each image was analysed and quantified with the MetaMorph software (Universal Imaging).

Assay [3] has as its system ApoE −/− mice. Nature of the assay: Insulin in plasma, ApoE −/− mice on regimen rich in cholesterol. The assay is classed as in vivo.
Source text: as §1
Assay of insulin in plasma may be performed by radioimmunological assay using commercially available kits comprising specific anti-insulin antibodies of mice or rats. One may for example use the rat/mouse ELISA kits, Linco research (ref. EZRMI-13K).

For assay [4], the system named is Wistar rats. The assay can be described thus: Circulating triglycerides, rats on dietary regimen rich in fructose. Conditions: oral. In kind it is in vivo. As to the method: Secondly, the activity of the compound CGP 02-01 was studied using a reference rat-fructose model. Groups of Wistar rats (n=12) were subjected for 3 weeks to a dietary regimen containing […] of fructose. […] Groups of rats subsequently received by forced feeding 50 mg/kg of the compound CGP 02-01 dissolved in a 2% tween solution prepared in methylcellulose. The blood samples for the biochemical analyses were performed after 1, 2 and 3 weeks. Independent groups of rats wee treated under the same conditions with metformin hydrochloride at a dose of 50 mg/kg. The metformin served as a reference in this metabolic syndrome model. Assay of serum triglycerides may be performed enzymatically using the commercially available kit. One may use kits from Biomérieux for example (ref. 61.238). In summary, the triglycerides are treated with a lipase in order to generate fatty acids. In the presence of ATP, the glycerol is transformed by glycerokinase into glycerol 3 phosphate. The glycerol 3 phosphate is subsequently transformed into dihydroxyacetone in generating oxygenated water (H202) which may be detected by formation of quinoneimine in the presence of parachlorophenol, amino-4-antipyrin and peroxidase. The intensity of the quinoneimine coloration is subsequently measured at 505 nm. This coloration is proportional to the quantity of triglycerides present in the sample.

The subject of assay [5] is ApoE −/− mice. Nature of the assay: Analysis of coronary ischaemia in ApoE −/− mice. In kind it is in vivo. Conditions: injected; normal or cholesterol-rich regimen; FIG. 15.
Source text: as §1
After killing the ApoE −/− mice subjected to a normal dietary regimen or a dietary regimen rich in cholesterol, the hearts of these animals are observed macroscopically. The rate of ischaemic lesions is observed (FIG. 15) and quantified by the presence or absence of lesions (FIG. 16).

Assay [6] concerns ApoE −/− mice. The assay can be described thus: HDL level in plasma, ApoE −/− mice on regimen rich in cholesterol. The assay is classed as in vivo.
Source text: as §1, with “The treated mice received by intraperitoneal injection the same solution containing 2 or 20 μg (i.e. 0.1 mg/kg/day or 1 mg/kg/day) of the compound CGP 02-01.” left out
The plasma HDL level is measured by tried and trusted commercial methods which use high density lipoprotein separation reagents and by measurement of the cholesterol level associated with these high molecular weight lipoproteins (Biomérieux kit ref. 61533 for example).

The subject of assay [7] is Wistar rats. Nature of the assay: Plasma glucose level (glycaemia) in rats on fructose-rich regimen. The assay is classed as in vivo. Conditions: oral, 21 days of treatment, FIG. 17. As to the method: Secondly, the activity of the compound CGP 02-01 was studied using a reference rat-fructose model. Groups of Wistar rats (n=12) were subjected for 3 weeks to a dietary regimen containing […] of fructose. […] Groups of rats subsequently received by forced feeding 50 mg/kg of the compound CGP 02-01 dissolved in a 2% tween solution prepared in methylcellulose. The blood samples for the biochemical analyses were performed after 1, 2 and 3 weeks. Independent groups of rats wee treated under the same conditions with metformin hydrochloride at a dose of 50 mg/kg. The metformin served as a reference in this metabolic syndrome model.

In assay [8] the test system is rats. The assay can be described thus: Hyperglycaemia test (glucose tolerance) in rats on fructose-rich regimen. In kind it is in vivo. Conditions: oral, glucose shock after 14th day, FIG. 18. From the text: Rats (n=12) were subjected to a dietary regimen rich in fructose (10%) for 21 days. After the 14th day, hyperglycaemic shock is induced by administration of 2 g/kg of glucose in the presence or absence of the compound CGP 02-01 administered via the oral route. The plasma glucose level is subsequently measured.

Where two headings read alike, the source gives them in different places.

This note sets out measurements from US20070161697A1, “Hydrazide type compounds and the use thereof in pharmaceutical compositions for the treatment of cardiovascular diseases” (priority 2004, published 2007).

As a reminder, the inhibition is how much of the control response was suppressed.

Consider `COc1cc(O)c(/C=N/NC(=O)c2cc3ccccc3s2)c(OC)c1` [CGP02-01, N′-[(1E)-(2-hydroxy-4,6-dimethoxyphenyl)methylene]-1-benzothiophene-2-carbohydrazide], for which the “Triglyceride deposit on the aortic wall” value was 156 ± 31 µg/mg in assay [1] (0.1 mg/kg) and 131 ± 42 µg/mg (dry weight) in assay [1] (1 mg/kg, three months, n=8). Moreover, the “Inhibition of the accumulation of lipid vesicles” value in assay [2] (1 μM, differentiated THP1 macrophage cells) is on record as “major inhibition”. For the same molecule, the inhibition at 2.5 µM amounted to 76% in assay [2] (Homo sapiens, THP-1, cells expressing the scavenger CD36, lipoproteins marked with cyanine 3, read-out: Inhibition of accumulation of LDLox in (%)) and 76% in assay [2] (Homo sapiens, THP-1 cells, 24 hours, read-out: Inhibition at 2.5 μM on THP-1 cells (24 hours)). In assay [2] (Homo sapiens, THP-1, lipoproteins marked with Cyanine 3, dose response curve, FIG. 1, read-out: CI50, accumulation of lipid vesicles in macrophage cell), the IC50 came out at 500 nM. Moreover, in assay [3] (0.1 or 1 mg/kg), the “Variation of plasma insulin level” value is reported as 18.8%. The molecule also displayed a Plasma insulin level in assay [3] (0.1 or 1 mg/kg IP, 3 months, control 1.17±0.2, p<0.01) of 0.95 ± 0.16 ng/mL. The same molecule had a Plasma triglyceride level in assay [4] (50 mg/kg, 3 weeks, control 1.39±0.13) of 0.47 ± 0.07 g/L. In addition, the “Variation of plasma triglyceride level” value in assay [4] (p<0.01) is on record as 66.2%. Further, the “Coronary ischaemic (cardiac) lesions” value in assay [5] is reported as “considerably reduced”. The “Plasma HDL level” value in assay [6] (0.1 mg/kg, cholesterol-rich regimen, untreated 0.11 ± 0.05) was found to be 0.15 ± 0.06 g/L; in assay [6] (1 mg/kg, cholesterol-rich regimen, untreated 0.11 ± 0.05), 0.15 ± 0.05 g/L; in assay [6] (regimen rich in cholesterol and fatty acid, dose not stated, control 0.11±0.005), 0.15 ± 0.005 g/L. For the same molecule, the “Variation of plasma HDL level” value in assay [6] (regimen rich in cholesterol and fatty acid) came to 38.2%. Also, in assay [7], the Increase in glycaemia entry was “stabilises this increase in glycaemia”. Moreover, the “Effect against induced hyperglycaemia (2 g/kg glucose)” value in assay [8] was “protective effect”.
